ChEMBL document CHEMBL1201862, “PubChem BioAssay data set” (2004)
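Following 48 hours of exposure in 96-well plates, responses at five concentrations were used to interpolate endpoints linearly. Abbreviation: GI50, concentration required for 50% inhibition of growth.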 Activity calls are given as the source filed them. Cut-off read from the data, not from the text of the source: active = GI50 up to about 1.1 µM and inactive = higher.

Key:
Assay in all cases: NCI tumour cell line growth inhibition, 48 h
BT-549 = system: BT-549
HL-60 = system: HL-60
IGROV-1 = system: IGROV-1
RPMI-8226 = system: RPMI-8226
SK-MEL-5 = system: SK-MEL-5
SR = system: SR
786-0 = system: 786-0
A498 = system: A498
A549 = system: A549
ACHN = system: ACHN
CAKI-1 = system: CAKI-1
CCRF-CEM = system: CCRF-CEM
COLO 205 = system: COLO 205
DU-145 = system: DU-145
EKVX = system: EKVX
HCC 2998 = system: HCC 2998
HCT-116 = system: HCT-116
HCT-15 = system: HCT-15
HOP-62 = system: HOP-62
HT-29 = system: HT-29
Hs-578T = system: Hs-578T
K562 = system: K562
KM12 = system: KM12
LOX IMVI = system: LOX IMVI
M14 = system: M14
MCF7 = system: MCF7
MDA-MB-231 = system: MDA-MB-231
MDA-MB-435 = system: MDA-MB-435
MDA-N = system: MDA-N
MOLT-4 = system: MOLT-4
Malme-3M = system: Malme-3M
NCI-H226 = system: NCI-H226
NCI-H23 = system: NCI-H23
NCI-H460 = system: NCI-H460
NCI-H522 = system: NCI-H522
NCI/ADR-RES = system: NCI/ADR-RES
OVCAR-3 = system: OVCAR-3
OVCAR-4 = system: OVCAR-4
OVCAR-8 = system: OVCAR-8
PC-3 = system: PC-3
RXF 393 = system: RXF 393
SF-268 = system: SF-268
SF-295 = system: SF-295
SF-539 = system: SF-539
SK-MEL-28 = system: SK-MEL-28
SK-MEL-2 = system: SK-MEL-2
SK-OV-3 = system: SK-OV-3
SN12C = system: SN12C
SNB-19 = system: SNB-19
SNB-75 = system: SNB-75
SW-620 = system: SW-620
T47D = system: T47D
TK-10 = system: TK-10
U-251 = system: U-251
UACC-257 = system: UACC-257
UACC-62 = system: UACC-62
UO-31 = system: UO-31

Oc1cccc2cccnc12
GI50 (BT-549): 61100 nM (inactive)
GI50 (HL-60): 294 nM (active)
GI50 (IGROV-1): 4270 nM (inactive)
GI50 (RPMI-8226): 918 nM (active)
GI50 (SK-MEL-5): 4860 nM (inactive)
GI50 (SR): 342 nM (active)

COc1cc([C@@H]2c3cc4c(cc3[C@@H](Nc3ccc(Cl)cc3C(=O)c3ccccc3Cl)[C@H]3COC(=O)[C@H]23)OCO4)cc(OC)c1OC
GI50 (786-0): 261 nM (active)
GI50 (A498): 98.9 nM (active)
GI50 (A549): 340 nM (active)
GI50 (ACHN): 125 nM (active)
GI50 (CAKI-1): 152 nM (active)
GI50 (CCRF-CEM): 101 nM (active)
GI50 (COLO 205): 267 nM (active)
GI50 (DU-145): 314 nM (active)
GI50 (EKVX): 57900 nM (inactive)
GI50 (HCC 2998): 373 nM (active)
GI50 (HCT-116): 73.8 nM (active)
GI50 (HCT-15): 102 nM
GI50 (HL-60): 69.5 nM (active)
GI50 (HOP-62): 443 nM (active)
GI50 (HT-29): 90 nM (active)
GI50 (Hs-578T): 24.1 nM (active)
GI50 (IGROV-1): 261 nM (active)
GI50 (K562): 106 nM (active)
GI50 (KM12): 91 nM (active)
GI50 (LOX IMVI): 245 nM (active)
GI50 (M14): 303 nM (active)
GI50 (MCF7): 111 nM (active)
GI50 (MDA-MB-231): 390 nM (active)
GI50 (MDA-MB-435): 66.1 nM (active)
GI50 (MDA-N): 87.3 nM (active)
GI50 (MOLT-4): 142 nM (active)
GI50 (Malme-3M): 143 nM (active)
GI50 (NCI-H226): 29.4 nM (active)
GI50 (NCI-H23): 166 nM (active)
GI50 (NCI-H460): 146 nM (active)
GI50 (NCI-H522): 68.5 nM (active)
GI50 (NCI/ADR-RES): 173 nM (active)
GI50 (OVCAR-3): 332 nM (active)
GI50 (OVCAR-4): > 45800 nM (inactive)
GI50 (OVCAR-8): 152 nM (active)
GI50 (PC-3): 160 nM (active)
GI50 (RPMI-8226): 173 nM (active)
GI50 (RXF 393): 144 nM (active)
GI50 (SF-268): 189 nM (active)
GI50 (SF-295): 121 nM (active)
GI50 (SF-539): 76 nM (active)
GI50 (SK-MEL-28): 333 nM (active)
GI50 (SK-MEL-2): 953 nM (active)
GI50 (SK-MEL-5): 102 nM (active)
GI50 (SK-OV-3): 1190 nM (inactive)
GI50 (SN12C): 371 nM (active)
GI50 (SNB-19): 174 nM (active)
GI50 (SNB-75): 188 nM (active)
GI50 (SR): 71.3 nM (active)
GI50 (SW-620): 122 nM (active)
GI50 (T47D): > 100000 nM (inactive)
GI50 (TK-10): 39700 nM (inactive)
GI50 (U-251): 99.8 nM (active)
GI50 (UACC-257): 184 nM (active)
GI50 (UACC-62): 118 nM (active)
GI50 (UO-31): 344 nM (active)
